According to patent publication US20260337187A1, “COMPOUNDS FOR TREATMENT OF INFLAMMATORY PROCESSES” (THORNE LIMITED, priority 2022, published 2026):
Like-named read-outs stand apart in the source and are kept apart here.

How the values were obtained:
Assay type in all cases: cell-based
[1] = test system: primary human B lymphocytes; assay: B lymphocyte cytokine release (cytokine array); conditions: CD40L and IL4; FIG. 9
Experimental: The % reduction compared to the stimulated control is shown; average of 2 experiments.
B lymphocyte cytokine release: Primary human B lymphocytes isolated from fresh buffy coat were stimulated at a cell density of 5×10^5/ml in 1 ml by CD40L and IL4 for 5 days in a 24-well plate, and the levels of 105 cytokines in the cell culture supernatant were measured by the R&D Systems Human XL cytokine antibody array as per manufacturer's instructions. The signals were measured by a fluorescence-based photometric read-out in the Li—COR Odyssey Fluorescent imaging system, and the spots quantified by Fiji software.
To investigate the modulation of B lymphocyte cytokine release by B2, primary human B lymphocytes isolated from fresh buffy coat were stimulated by CD40L and IL4 for […] and the levels of 105 cytokines in the cell culture supernatant were measured by the R&D Systems Human XL cytokine array and a fluorescence-based photometric read-out.

[2] = test system: Primary human pulmonary microvascular endothelial cells (HPMEC); assay: Neutrophil adhesion to endothelial cells; conditions: 10, 20 and 50 μM B2, TNF-α stimulated HPMEC (FIG. 11)
Excerpt: The number of adhered green-fluorescent labeled neutrophils per field of view normalized to the area covered by endothelial cells per field of view is shown. Three concentrations of B2 are shown next to the solvent (DMSO) control. An exemplary experiment out of three is shown.
Neutrophil adhesion to endothelial cells: Primary human pulmonary microvascular endothelial cells (HPMEC) were purchased from Promocell and maintained in endothelial cell media from Promocell as per the company's protocol. The endothelial cells were plated in flat bottom 96 well plastic plates at a concentration of 50,000 cells/well. After 24 h the endothelial cells were stimulated overnight by TNF-α (100 ng/ml) and the inhibitor. Neutrophils were isolated from whole blood using MACSxpress Neutrophil isolation kit. […] Samples were analyzed in triplicates and 3 fields of view were imaged per well. Cells per field of view were quantified using FiJi software.
To investigate the adhesion of neutrophils to endothelial cells, human primary neutrophils, were fluorescently labeled with 1 μM CellTracker dye and resuspended in HBS solution prior to addition of B2 or DMSO. Green fluorescent adherent cells were counted, the area covered by endothelial cell was measured, and the number of neutrophils adherent to endothelial cells normalized for the area covered by endothelial cells.

[3] = test system: Primary human pulmonary microvascular endothelial cells (HPMEC); assay: Pulmonary endothelial cell cytokine release (TNFα triggered, cytokine array); conditions: for inhibition at 50 µM: Homo sapiens, Endothelial cell, 50 μM B2, activated by TNF
Experimental: Endothelial cell cytokine release: Primary human pulmonary microvascular endothelial cells (HPMEC) were purchased from Promocell and maintained in endothelial cell media from Promocell as per the company's protocol. To measure the release of inflammatory mediators HPMEC were cultured to confluence in a 12 well plate in 1 ml of endothelial cell media. Cells were then stimulated with TNFα at 100 ng/ml overnight in the presence or absence of B2 or control DMSO. The supernatant was then collected and inflammatory mediator levels were measured in it using the Cytokine XXL array from R&D systems according to manufacturer's instructions as described above.
(§1) Human primary pulmonary endothelial cells were triggered to produce cytokines by the pro-inflammatory cytokine TNFα. The levels of 105 cytokines in the cell culture supernatant were measured by the R&D Systems Human XL cytokine array and a fluorescence-based photometric read-out. The table lists cytokines whose production was reduced by >50% (left) or 20 to 50% upon treatment with 50 μM B2 (right).

[4] = test system: Human primary coronary artery endothelial cells (HCAEC); assay: Coronary artery endothelial cell cytokine release (TNFα triggered, cytokine array); conditions: 50 μM B2, TNFα
Experimental: as §1, with “coronary artery” for “pulmonary”, “cells (HCAEC)” for “cells”

## Cc1onc(-c2ccccc2Cl)c1C(=O)Nc1nc2ccc([N+](=O)[O-])cc2s1 [B2, 3-(2-chlorophenyl)-5-methyl-N-(6-nitrobenzo[d]thiazol-2-yl)isoxazole-4-carboxamide]
[1]
  B cell cytokine release profile: reducing specific pro-inflammatory cytokines
[2]
  neutrophil adhesion to endothelial cells: inhibition of neutrophil adhesion to endothelial cells
[3]; *Poor dose response, only minor increase with TNF, read-out: FGF19 production, reduction
  inhibition at 50 µM: 20 to 50%
[3]; read-out: CCL2/MCP-1 production, reduction
  inhibition at 50 µM: 20 to 50%
[3]; read-out: CCL5/RANTES production, reduction
  inhibition at 50 µM: > 50%
[3]; read-out: CCL20/MIP-3 alpha production, reduction
  inhibition at 50 µM: 20 to 50%
[3]; read-out: CXCL1/GRO-alpha production, reduction
  inhibition at 50 µM: > 50%
[3]; read-out: CXCL5/ENA-78 production, reduction
  inhibition at 50 µM: > 50%
[3]; read-out: CXCL10/IP10 production, reduction
  inhibition at 50 µM: 20 to 50%
[3]; read-out: GMCSF production, reduction
  inhibition at 50 µM: > 50%
[3]; read-out: HGF production, reduction
  inhibition at 50 µM: > 50%
[3]; read-out: ICAM-1 production, reduction
  inhibition at 50 µM: > 50%
[3]; read-out: Pentraxin-3 production, reduction
  inhibition at 50 µM: 20 to 50%
[3]; read-out: TFF3 production, reduction
  inhibition at 50 µM: > 50%
[3]; read-out: VCAM-1 production, reduction
  inhibition at 50 µM: > 50%
[3]; TNFα, Table 1
  human pulmonary endothelial cell cytokine release profile: reducing specific pro-inflammatory cytokines
  secretion of several chemokines by endothelial cells: substantially reduced
  secretion of several soluble adhesion molecules by endothelial cells: reduced
[3]; activated by TNF, footnote * to FGF19
  FGF19 production, dose response: *Poor dose response, only minor increase with TNF.
[4]; read-out: CCL5 production, inhibition
  inhibition at 50 µM: 20 to 50%
[4]; read-out: CXCL1 production, inhibition
  inhibition at 50 µM: 20 to 50%
[4]; read-out: CXCL5 production, inhibition
  inhibition at 50 µM: > 50%
[4]; read-out: CXCL10 production, inhibition
  inhibition at 50 µM: > 50%
[4]; read-out: CXCL11 production, inhibition
  inhibition at 50 µM: > 50%
[4]; read-out: GM-CSF production, inhibition
  inhibition at 50 µM: 20 to 50%
[4]; read-out: ICAM1 production, inhibition
  inhibition at 50 µM: 20 to 50%
[4]; read-out: IGFBP2 production, inhibition
  inhibition at 50 µM: > 50%
[4]; read-out: Thrombospondin-1 production, inhibition
  inhibition at 50 µM: > 50%
[4]; read-out: VCAM1 production, inhibition
  inhibition at 50 µM: > 50%
